This passage reports AC50 results from ChEMBL document CHEMBL5291721, “A preclinical secondary pharmacology resource illuminates target-adverse drug reaction associations of marketed drugs” (Nat Commun, 2023).

The target of one experiment is T1, Adenosine receptor A3 (Homo sapiens, UniProt P0DMS8).
T1 sequence (P0DMS8 whole entry): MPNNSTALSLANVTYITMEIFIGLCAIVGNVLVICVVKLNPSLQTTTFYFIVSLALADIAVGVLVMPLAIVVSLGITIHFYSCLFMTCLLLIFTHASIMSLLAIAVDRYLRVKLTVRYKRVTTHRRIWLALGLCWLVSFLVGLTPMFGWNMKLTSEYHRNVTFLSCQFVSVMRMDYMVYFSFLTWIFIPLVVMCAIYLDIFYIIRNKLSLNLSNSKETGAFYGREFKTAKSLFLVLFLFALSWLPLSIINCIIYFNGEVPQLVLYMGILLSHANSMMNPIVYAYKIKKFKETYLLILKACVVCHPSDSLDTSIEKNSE

The target of experiment [1] is T2, Alpha-2A adrenergic receptor (Homo sapiens, UniProt P08913).
T2 sequence (P08913 whole entry): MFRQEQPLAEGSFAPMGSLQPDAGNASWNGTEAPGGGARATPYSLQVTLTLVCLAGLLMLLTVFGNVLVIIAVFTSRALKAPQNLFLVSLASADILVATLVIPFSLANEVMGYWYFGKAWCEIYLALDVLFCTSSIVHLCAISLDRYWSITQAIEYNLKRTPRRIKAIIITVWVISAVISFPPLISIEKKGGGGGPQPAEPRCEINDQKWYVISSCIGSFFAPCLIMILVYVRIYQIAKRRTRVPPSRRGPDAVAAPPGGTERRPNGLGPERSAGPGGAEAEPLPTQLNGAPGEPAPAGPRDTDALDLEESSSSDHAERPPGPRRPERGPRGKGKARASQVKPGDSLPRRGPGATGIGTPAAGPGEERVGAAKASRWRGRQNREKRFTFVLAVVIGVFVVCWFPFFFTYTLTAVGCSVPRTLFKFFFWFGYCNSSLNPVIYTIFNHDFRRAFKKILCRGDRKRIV
Type of experiment: functional, cell-based.

Another experiment has as its target T3, Adenosine receptor A1 (Homo sapiens, UniProt P30542).
T3 sequence (P30542 whole entry): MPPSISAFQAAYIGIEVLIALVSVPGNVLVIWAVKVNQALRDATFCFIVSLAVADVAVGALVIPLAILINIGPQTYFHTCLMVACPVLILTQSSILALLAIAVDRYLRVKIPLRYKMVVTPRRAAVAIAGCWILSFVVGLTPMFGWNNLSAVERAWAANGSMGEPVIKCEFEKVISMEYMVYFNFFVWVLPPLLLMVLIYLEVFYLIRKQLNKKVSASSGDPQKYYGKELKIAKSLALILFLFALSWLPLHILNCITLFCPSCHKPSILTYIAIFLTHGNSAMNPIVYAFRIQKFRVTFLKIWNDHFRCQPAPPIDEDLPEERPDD

For experiment [2], the target named is T4, Alpha-1A adrenergic receptor (Homo sapiens, UniProt P35348).
T4 sequence (P35348 whole entry): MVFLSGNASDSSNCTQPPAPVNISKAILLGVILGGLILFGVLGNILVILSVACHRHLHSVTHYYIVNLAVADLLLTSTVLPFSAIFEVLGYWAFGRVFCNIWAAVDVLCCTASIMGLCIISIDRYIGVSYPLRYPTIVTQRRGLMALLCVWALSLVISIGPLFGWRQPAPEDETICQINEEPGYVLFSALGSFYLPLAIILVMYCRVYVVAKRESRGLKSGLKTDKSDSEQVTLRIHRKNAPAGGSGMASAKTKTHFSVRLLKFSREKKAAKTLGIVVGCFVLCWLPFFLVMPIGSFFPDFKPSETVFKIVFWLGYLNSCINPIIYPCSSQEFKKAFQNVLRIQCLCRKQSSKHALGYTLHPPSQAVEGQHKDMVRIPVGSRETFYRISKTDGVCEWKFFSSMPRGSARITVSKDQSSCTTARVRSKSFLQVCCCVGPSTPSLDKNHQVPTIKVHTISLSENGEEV
In kind it is functional, cell-based.

Another experiment addresses Melanocortin receptor 3 (Homo sapiens, UniProt P41968).
Experiment [3] concerns the target T5, Alpha-2C adrenergic receptor (Homo sapiens, UniProt P18825).
T5 sequence (P18825 whole entry): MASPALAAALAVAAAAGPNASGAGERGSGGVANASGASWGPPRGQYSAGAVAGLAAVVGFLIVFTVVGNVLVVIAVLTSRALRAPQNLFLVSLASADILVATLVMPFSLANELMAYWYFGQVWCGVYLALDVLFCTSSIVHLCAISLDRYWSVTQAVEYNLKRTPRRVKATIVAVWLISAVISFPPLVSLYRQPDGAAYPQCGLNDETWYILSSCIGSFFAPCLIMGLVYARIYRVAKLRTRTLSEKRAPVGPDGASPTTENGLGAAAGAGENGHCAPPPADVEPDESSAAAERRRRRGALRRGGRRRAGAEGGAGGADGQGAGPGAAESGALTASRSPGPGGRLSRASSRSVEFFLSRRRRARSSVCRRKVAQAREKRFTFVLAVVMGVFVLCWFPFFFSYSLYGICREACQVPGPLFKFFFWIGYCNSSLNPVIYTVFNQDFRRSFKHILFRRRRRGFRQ
In kind it is functional.

Experiment [4] concerns the target T6, 5-hydroxytryptamine receptor 2C (Homo sapiens, UniProt P28335).
T6 sequence (P28335 whole entry): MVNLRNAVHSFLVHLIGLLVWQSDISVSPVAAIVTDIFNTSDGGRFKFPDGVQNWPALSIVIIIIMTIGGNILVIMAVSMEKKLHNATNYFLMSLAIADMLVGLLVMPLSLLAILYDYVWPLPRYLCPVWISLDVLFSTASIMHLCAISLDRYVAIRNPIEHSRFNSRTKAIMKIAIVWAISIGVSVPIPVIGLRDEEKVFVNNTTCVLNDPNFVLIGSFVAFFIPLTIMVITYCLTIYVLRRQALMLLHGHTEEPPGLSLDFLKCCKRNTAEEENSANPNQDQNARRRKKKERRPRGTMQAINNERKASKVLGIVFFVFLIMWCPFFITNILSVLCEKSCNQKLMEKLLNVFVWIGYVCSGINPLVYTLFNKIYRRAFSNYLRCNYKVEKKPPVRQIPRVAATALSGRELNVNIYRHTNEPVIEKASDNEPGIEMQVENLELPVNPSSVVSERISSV
Further: assay procedure not described here.

Chain of Melanocortin receptor 3 (P41968 whole entry): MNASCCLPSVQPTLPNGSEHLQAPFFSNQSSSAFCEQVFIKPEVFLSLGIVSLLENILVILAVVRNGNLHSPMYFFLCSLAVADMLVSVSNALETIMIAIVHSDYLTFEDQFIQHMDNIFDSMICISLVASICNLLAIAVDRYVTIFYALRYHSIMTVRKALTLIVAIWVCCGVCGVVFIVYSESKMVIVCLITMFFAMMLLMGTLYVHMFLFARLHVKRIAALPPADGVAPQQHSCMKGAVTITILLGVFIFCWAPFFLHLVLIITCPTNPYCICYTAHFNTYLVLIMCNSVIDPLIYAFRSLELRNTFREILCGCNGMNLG

In turn, `CC[C@@H]1C[C@]1(NC(=O)[C@@H]1C[C@@H]2CN1C(=O)[C@H](C(C)(C)C)NC(=O)OCC(C)(C)CCCCc1cccc3c1CN(C3)C(=O)O2)C(=O)NS(=O)(=O)C1CC1` displayed an AC50 on Adenosine receptor A3 of 12.6 µM.
Still for that read-out and setting: the result for `CC(=O)NO` [ACETOHYDROXAMIC ACID] reads more than 30 µM.
The same measure, in the same setting: the result for `CC(=O)NCCCCCC(=O)O` [ACEXAMIC ACID] reads more than 30 µM; that for `C=C(C)CNc1ccc(C(C)C(=O)O)cc1` (stereo not drawn) [ALMINOPROFEN], more than 30 µM.
The same measure, in the same setting: the result for `C[C@H]1CN(C[C@H](Cc2ccccc2)C(=O)NCC(=O)O)CC[C@@]1(C)c1cccc(O)c1` [ALVIMOPAN] reads more than 30 µM; that for `O=C(O)c1ccccc1` [BENZOIC ACID], more than 30 µM.
Consider `Cc1nc(Nc2ncc(C(=O)Nc3c(C)cccc3Cl)s2)cc(N2CCN(CCO)CC2)n1` [DASATINIB], for which the AC50 is more than 10 µM in experiment [1]; more than 30 µM at Adenosine receptor A1; 10 µM in experiment [2]; more than 30 µM at Melanocortin receptor 3; 19 µM in experiment [3]; 14.1 µM in experiment [4].
In turn, `C[C@H]1O[C@@H](O[C@H]2CC[C@@]3(C)[C@H](CC[C@@H]4[C@@H]3C[C@@H](O)[C@]3(C)[C@@H](C5=CC(=O)OC5)CC[C@]43O)C2)C[C@H](O)[C@@H]1O[C@H]1C[C@H](O)[C@H](O[C@H]2C[C@H](O)[C@H](O[C@@H]3O[C@H](CO)[C@@H](O)[C@H](O)[C@H]3O)[C@@H](C)O2)[C@@H](C)O1` [DESLANOSIDE] displayed a concentration at half-maximal activity (AC50) on Adenosine receptor A3 of more than 30 µM.
Regarding `CC(C)Cc1ccc([C@H](C)C(=O)O)cc1` [DEXIBUPROFEN], the concentration at half-maximal activity (AC50) (in experiment [1]; on Adenosine receptor A1; in experiment [2]; on Melanocortin receptor 3; in experiment [3]; in experiment [4]) was more than 30 µM each time.
Compound `CCCCc1oc2ccc(NS(C)(=O)=O)cc2c1C(=O)c1ccc(OCCCN(CCCC)CCCC)cc1` [DRONEDARONE] displayed an AC50 on Adenosine receptor A3 of 1.54 µM.
The compound `CC(C(=O)O)c1cccc(Oc2ccccc2)c1` (stereo not drawn) [FENOPROFEN] came in with an AC50 on Adenosine receptor A3 of more than 30 µM.
Still for that read-out and setting: the result for `CC(C)C(=O)Oc1ccc(CO)cc1[C@H](CCN(C(C)C)C(C)C)c1ccccc1` [FESOTERODINE] reads more than 30 µM.
Take `Cc1onc(-c2c(F)cccc2Cl)c1C(=O)N[C@@H]1C(=O)N2[C@@H]1SC(C)(C)[C@@H]2C(=O)O` [FLOXACILLIN]: the concentration at half-maximal activity (AC50) (in experiment [1]; at Adenosine receptor A1; in experiment [2]; on Melanocortin receptor 3; in experiment [3]; in experiment [4]) was more than 30 µM in each case.
For `CC1(C)O[C@@H]2C[C@H]3[C@@H]4C[C@H](F)C5=CC(=O)C=C[C@]5(C)[C@@]4(F)[C@@H](O)C[C@]3(C)[C@]2(C(=O)CO)O1` [FLUOCINOLONE ACETONIDE], the AC50 on Adenosine receptor A3 was more than 30 µM.
Same read-out and setting: for `O=C(O)P(=O)(O)O` [FOSCARNET] the value was more than 30 µM; for `N=C(N)N/N=C/c1c(Cl)cccc1Cl` [GUANABENZ], more than 30 µM; for `C[N+](C)(CCCCCC[N+](C)(C)C1c2ccccc2-c2ccccc21)C1c2ccccc2-c2ccccc21` [HEXAFLUORENIUM], more than 30 µM.
At Adenosine receptor A3, `CCCCC(CC)CN1CN(CC(CC)CCCC)CC(C)(N)C1` (stereo not drawn) [HEXETIDINE] gave an AC50 of 10.8 µM.
The compound `Cc1cc(=O)oc2cc(O)ccc12` [HYMECROMONE] gave an AC50 at Adenosine receptor A3 of more than 30 µM.
Turning to `CCCCCCCN(CC)CCCC(O)c1ccc(NS(C)(=O)=O)cc1` (stereo not drawn) [IBUTILIDE], the concentration at half-maximal activity (AC50) in experiment [1] was more than 30 µM; on Adenosine receptor A1 it was more than 30 µM; in experiment [2] it was more than 30 µM; on Melanocortin receptor 3 it was more than 30 µM; in experiment [3], 3.2 µM; in experiment [4], more than 30 µM.
As for `COc1cc(C(C)=O)ccc1OCCCN1CCC(c2noc3cc(F)ccc23)CC1` [ILOPERIDONE], the AC50 was 0.45 µM in experiment [1]; more than 30 µM on Adenosine receptor A1; 0.0092 µM in experiment [2]; more than 30 µM on Melanocortin receptor 3; 0.018 µM in experiment [3]; 0.803 µM in experiment [4].
With `COc1c2occc2c(OC)c2c(=O)cc(C)oc12` [KHELLIN], on Adenosine receptor A3, the AC50 was more than 30 µM.
Same read-out and setting: for `CC(C)[C@@H]1CC[C@@H](C)C[C@H]1O` [LEVOMENTHOL] the value was more than 30 µM; for `COC(=O)[C@@H](N)Cc1ccc(O)c(O)c1` [MELEVODOPA], more than 30 µM.
In the case of `C[N+]1(C)CCCC(OC(=O)C(O)(c2ccccc2)c2ccccc2)C1` (stereo not drawn) [MEPENZOLATE], the AC50 at Adenosine receptor A3 is more than 30 µM.
The compound `C=N[C@@H](C(=O)N[C@@H]1C(=O)N2[C@@H]1SC(C)(C)[C@@H]2C(=O)O)c1ccccc1` [METAMPICILLIN] came in with an AC50 on Adenosine receptor A3 of more than 30 µM.
Still for that read-out and setting: for `O=C(NNCS(=O)(=O)O)c1ccncc1` [METHANIAZIDE] the value was more than 30 µM.
Still for that read-out and setting: for `Cc1cc(=O)[nH]c(=S)[nH]1` [METHYLTHIOURACIL] the value was more than 30 µM; for `CN(C)c1ccc(O)c2c1C[C@H]1C[C@H]3[C@H](N(C)C)C(O)=C(C(N)=O)C(=O)[C@@]3(O)C(O)=C1C2=O` [MINOCYCLINE], more than 30 µM.
Take `Cn1cc(C(=O)[C@@H]2CCc3nc[nH]c3C2)c2ccccc21` [RAMOSETRON]: the half-maximal activity concentration (AC50) in experiment [1] is 4.3 µM; on Adenosine receptor A1 it was more than 30 µM; in experiment [2] it was more than 30 µM; at Melanocortin receptor 3, more than 30 µM; in experiment [3], 11 µM; in experiment [4], more than 30 µM.
In the case of `CN(CCOc1ccc(CC2SC(=O)NC2=O)cc1)c1ccccn1` (stereo not drawn) [ROSIGLITAZONE], the concentration at half-maximal activity (AC50) was 8.6 µM in experiment [1]; more than 30 µM at Adenosine receptor A1; 11 µM in experiment [2]; 20.8 µM at Melanocortin receptor 3; more than 30 µM in experiment [3]; more than 30 µM in experiment [4].
As to `S=P(N1CC1)(N1CC1)N1CC1` [THIOTEPA], the half-maximal activity concentration (AC50) in experiment [1] was 14 µM; at Adenosine receptor A1, more than 30 µM; in experiment [2] it was 0.044 µM; at Melanocortin receptor 3, more than 30 µM; in experiment [3], 4.4 µM; in experiment [4], 9.4 µM.
In the case of `CC(C)[C@H](N)C(=O)OCCOCn1cnc2c(=O)[nH]c(N)nc21` [VALACYCLOVIR], the AC50 in experiment [1] was more than 10 µM; on Adenosine receptor A1 it was more than 30 µM; in experiment [2] it was more than 30 µM; on Melanocortin receptor 3 it was more than 30 µM; in experiment [3], more than 10 µM; in experiment [4] it was more than 30 µM.

By AC50 is commonly meant the midpoint of the concentration-response curve, whichever way the signal moves. Low readings indicate activity at low concentration, high ones activity only at high concentration.
